According to US20150018369A1 (priority 2012, published 2015):

Tests used:
[1] = system: DBT tumors; experiment: DBT tumors implanted in BalbC mice; format: in vivo, mouse; conditions: treated daily over 2 weeks
[2] = Accelerating rotarod, acute toxicity in healthy mice; format: in vivo, mouse
Method: As an initial step to test the therapeutic efficacy of ST-11 in vivo, the pharmacokinetic profile and acme toxicity profile of ST-11 in healthy mice were determined. FIG. 13 illustrates an LC-MS chromatogram and calibration curve of ST-11 (a & 13). PK profile of ST-11 (c, d, e & f).

[3] = system: mouse microglia in primary culture; experiment: Cell viability in mouse microglia; format: cell-based
[4] = system: AI receptors; experiment: cAMP production in HEK293 cells; format: cell-based, human
Excerpt: (§1) When comparing the overall amino acid sequence of GPR124 to that of CB1 and CB2 receptors no significant homology was found. However, when focusing the comparison to the amino acid sequence encoding for the third transmembrane domains of GPR124 and CB2 receptors, 84% homology was found (FIG. 5a). […] Therefore, it is likely that ST-1, ST-11, and other AI compounds interact directly with the third transmembrane domain of GPR124. To determine the signaling mechanism of AI receptors, effect of ST-11 in HEX293 cells, which express GPR124 endogenously and commonly used to study GPCR pharmacology and signaling pathway, was tested.

[5] = system: AI receptors; experiment: GTPγS binding in HEK293 cell homogenates; format: biochemical, human
Excerpt: as §1

[6] = system: mouse microglia in primary culture; experiment: NO production in mouse microglia; format: cell-based
[7] = biological target: CB2 (Homo sapiens, UniProt P34972); experiment: HA-tagged receptor internalization, CB2; format: cell-based; design: HA; expressed in transfected cells; conditions: FIG. 2b
Sequence of CB2 (P34972 whole entry): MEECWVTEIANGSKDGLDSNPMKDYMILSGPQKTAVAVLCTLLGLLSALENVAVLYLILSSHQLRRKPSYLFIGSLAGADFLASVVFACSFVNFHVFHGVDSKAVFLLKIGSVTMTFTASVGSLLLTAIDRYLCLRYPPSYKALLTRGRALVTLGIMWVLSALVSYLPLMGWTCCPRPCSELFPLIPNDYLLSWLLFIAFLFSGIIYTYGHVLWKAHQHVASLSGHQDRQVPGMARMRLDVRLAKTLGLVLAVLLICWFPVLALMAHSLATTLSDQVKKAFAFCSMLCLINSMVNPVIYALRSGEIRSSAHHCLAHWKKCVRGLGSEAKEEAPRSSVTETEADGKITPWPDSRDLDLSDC
Excerpt: FIGS. 2d and 2e illustrate the co-docking of CP55940 and either WIN55212-2 (d) or ST-11 (e) in hCB1 receptors.

[8] = system: AI receptors (mouse microglia in primary culture); experiment: [3H]-WIN55212 binding in mouse microglia
[9] = system: DBT cells; experiment: Killing of DBT mouse astrocytoma cells; format: cell-based; conditions: FIG. 10c
Excerpt: Cannabinoid receptors are known to regulate cell migration.

[10] = system: CB1; experiment: [3H]-CP55940 binding competition at CB1; design: species or system human; conditions: FIG. 2c
Method: Fragments were amplified from total RNA of cell lines by reverse transcriptase-polymerase chain reaction (RT-PCR). Sequence was confirmed and the fragment was cloned into the EcoRI site of the pIRES2-eGFP-express vector. Cells were grown to approximately 80% confluence in 10 cm cell culture dishes, transfected with the cDNA pIRES-eGFP-vector containing the human CB1 or CB2 receptor using LipofectAMINE™ 2000 reagent in the serum-free media Opti-MEM 1 according to the manufacturer's description. Cells were subject to FACS sorting 48 his after transfection and single cell sorted based on dsRed expression into 96-well plates. Of the dsRed expressing positive clones, 3 were validated for CB1 and CB2 protein expression by radioligand binding analysis (methods discussed below).
Cells were grown to 90% confluence, rinsed twice with 1× PBS and stored at −80° C. until further use. To prepare crude cellular membrane fractions, dishes were removed from −80° C. and thawed at room temperature for 5 min. Once thawed, cells were lysed with ice-cold homogenization buffer (50 mM Tris, 1 mM EDTA, 3 mM MgCl2) and gently scraped from the dish. Total cell lysates from 3-5 dishes were collected on ice in 3 ml of ice-cold homogenization buffer Cells were homogenized at 6,500 rpm (PRO Scientific, Oxford, Conn.) twice for 10 sec and centrifuged at 11,500 rpm for 20 min at 4° C. […]

[11] = system: T98 g cells; experiment: Cell viability assay (WST-1), SAR of AI compounds at inducing cell death; format: cell-based, human; conditions: Homo sapiens, T98G, 72 h
Method: Cells were plated media supplemented with 10% serum in 96-well plates (10^4 cells per wellI; 0.1 ml per well). Once they reached ˜70% confluence, they were rinsed with PBS and kept for an additional 24 his in media supplemented with 1% serum, at which time drugs or vehicle (DMSO, 0.1%, prepared in 10 μl serum-free media) were directly added to each well. After 3 days, cell viability was assessed using the Cell Proliferation Reagent WST-1 (Roche, Indianapolis, Ind.). Briefly, WST-1 reagent (10 μl) was added to each well for 3 hrs at 37° C. with 5% CO2 and WST-1 products were read at 450 nm using Packard SpectraCount™.
Because the strongest toxic effect of WIN55212-2 (ST-1) was measured in T98 g cells, these cells are used as readout to study the structure activity relationship (SAR) of AI compounds at inducing cell death. Table 2 provides the chemical structure, potency and efficacy of several AI compounds.

**Q.** Which “number of lymphocytes in DBT tumors” value [1] does the source give for `CCn1c(C)c(C(=O)c2ccc(C)c3ccccc23)c2ccccc21` [ST-11] here?
**A.** Its value is “increases the number of lymphocytes”.

**Q.** What about the “number of microglia in DBT tumors” value [1] of the same molecule?
**A.** Its value is “increases”.

**Q.** What about the “locomotor activity on an accelerating rotarod” value [2] of the same molecule?
**A.** Its value is “does not influence locomotor activity”.

**Q.** And the “cell viability in microglia” value [3]?
**A.** Its value is “does not”.

**Q.** What about the cAMP production [4] of the same molecule?
**A.** Its cAMP production is “inhibition of cAMP production”.

**Q.** And the GTPγS binding [5]?
**A.** Its GTPγS binding is “activation of GTP[…]S binding”.

**Q.** And the NO production [6]?
**A.** Its NO production is “does not stimulate or inhibit”.

**Q.** What about the “cross-activation of human CB2 receptors (receptor internalization)” value [7] of the same molecule?
**A.** The value was “engage CB2 receptors”.

**Q.** What about the “competition for [3H]-WIN55212 binding” value [8] of the same molecule?
**A.** The value was “competed”.

**Q.** What about the “killing of DBT cells” value [9] of the same molecule?
**A.** The value was “kills DBT cells”.

**Q.** And the “competition for [3H]-CP55940 binding at CB1” value [10]?
**A.** Its value is “but not for [^3H]-CP55940 binding”.

**Q.** And the EC50 [11]?
**A.** Its EC50 is 1300 nM.
